{
  "source": "patent US20190314352A1",
  "about": "“ADMINISTRATION OF DIPEPTIDYL PEPTIDASE INHIBITORS” (Takeda Pharmaceutical Company Limited, priority 2005, published 2019)",
  "key": {"[1]": {"system": "Male db/db (BKS.Cg-+Lepr^db/+Lepr^db) mice", "assay": "Co-administration with pioglitazone: glycosylated hemoglobin levels in mice", "assay_type": "in vivo", "settings": "21 days in powder chow: 0.03% (w/w) benzoate salt of Compound I and/or 0.0075% (w/w) pioglitazone hydrochloride, n=8, mean ± SD", "procedure": "Male db/db (BKS.Cg-+Lepr^db/+Lepr^db) mice (6 weeks of age, CLEA Japan (Tokyo, Japan)) were divided into 4 groups (n=8 in each group) comprising Group A to Group D. Group A had free access to CE-2 powder chow (CLEA Japan) for 21 days. […] Group C had free access to CE-2 powder chow (CLEA Japan) containing 0.0075% (w/w) of pioglitazone hydrochloride for 21 days. The dose of pioglitazone in Group C was calculated to be 15.4±1.5 (mean±SD) mg/kg body weight/day. […] During 21 days of administration of the powder chow, there were not significant differences in the administration amount of the powder chow in the above 4 groups. After 21 days of administration of the powder chow, blood samples were taken from the orbital veins of the mice by capillary pipette under feeding condition, and Glycosylated hemoglobin levels were measured by HPLC-based method using TOSOH automated GHb Analyzer HLC-723 G7 (TOSOH, Japan).\nThe values in the table means average (n=8)±standard deviation."}, "[2]": {"system": "newly diagnosed type II diabetes patients", "assay": "4-hour postprandial plasma glucose (Cavg) following breakfast, 14-day repeat-dose placebo-controlled study", "assay_type": "in vivo, human", "settings": "for mean reduction from baseline in Cavg B / mean reduction in Cavg B calculated as a percent change: fourteen days of treatment; for 4-hour postprandial plasma glucose following breakfast, Day 14 Actual, Mean: 14 days; for 4-hour postprandial plasma glucose, Difference in Change from Baseline from Placebo, LS Mean: Day 14, ANCOVA; for 4-hour postprandial plasma glucose following breakfast, Day 14 Change from Baseline, Mean: baseline Day −1", "excerpt": "Data was collected at each study visit.\nThe primary efficacy analysis was based on change in mean 4-hour prandial glucose concentrations (Cavg) from Day −1 to Day 14. Table A summarizes the primary efficacy endpoint measured following breakfast."}, "[3]": {"system": "newly diagnosed type II diabetes patients", "assay": "Glycosylated hemoglobin (HbA1c), 14-day repeat-dose placebo-controlled study", "assay_type": "in vivo, human", "settings": "for HbA1c, Difference in Change from Baseline from Placebo, LS Mean: Day 15, ANCOVA; for HbA1c, Day 15 Change from Baseline, Mean: baseline Day −7", "procedure": "(§1) Blood samples were collected on Days 6, 16, 17, and 21 for analysis of efficacy based on change in mean 4-hour postprandial plasma glucose (Cavg) from Day −1 to Day 14. Secondary efficacy endpoints included mean 4-hour prandial fructosamine, and glycosylated hemoglobin (HbA1c). Data was collected at each study visit. Inhibition of DPPIV activity was also determined using an assay validated for human plasma samples."}, "[4]": {"system": "newly diagnosed type II diabetes patients", "assay": "Fasting fructosamine, 14-day repeat-dose placebo-controlled study", "assay_type": "in vivo, human", "settings": "for Fasting Fructosamine, Day 15 Actual, Mean: type II diabetes patients; for Fasting Fructosamine, Difference in Change from Baseline from Placebo, LS Mean: Day 15, ANCOVA; for Fasting Fructosamine, Day 15 Change from Baseline, Mean: baseline Day −7", "procedure": "as §1"}, "[5]": {"system": "newly diagnosed type II diabetes patients", "assay": "Glycosylated hemoglobin (HbA1c), 14-day repeat-dose placebo-controlled study", "assay_type": "in vivo, human", "settings": "one time per day at the specified dosage levels, extended treatment; expected"}, "[6]": {"system": "newly diagnosed type II diabetes patients", "assay": "Fasting fructosamine, 14-day repeat-dose placebo-controlled study", "assay_type": "in vivo, human", "settings": "for Fasting Fructosamine, Difference in Change from Baseline from Placebo, LS Mean: Day 15, ANCOVA"}},
  "data": [
    {"molecule": "CCc1ccc(CCOc2ccc(CC3SC(=O)NC3=O)cc2)nc1", "note": "(stereo not drawn) [Pioglitazone, 5-{[4-(2-(5-ethyl-2-pyridyl)ethoxy)phenyl]-methyl}-thiazolidine-2,4-dione, reference compound]", "values": [
      {"measurement": "Glycosylated Hemoglobin (%)", "setting": "[1]", "value": "5.0 ± 0.7", "unit": "%"}
    ]},
    {"molecule": "Cn1c(=O)cc(N2CCC[C@@H](N)C2)n(Cc2ccccc2C#N)c1=O", "note": "[Compound I, 2-[[6-[(3R)-3-amino-1-piperidinyl]-3,4-dihydro-3-methyl-2,4-dioxo-1(2H)-pyrimidinyl]methyl]-benzonitrile]", "values": [
      {"measurement": "mean reduction from baseline in Cavg B", "setting": "[2]; 25 mg group", "value": 33, "unit": "mg/dL"},
      {"measurement": "mean reduction in Cavg B calculated as a percent change", "setting": "[2]; 25 mg group", "value": 15, "unit": "%"},
      {"measurement": "4-hour postprandial plasma glucose following breakfast, Day 14 Actual, Mean", "setting": "[2]; 25 mg/day, type II diabetes patients", "value": 203.2, "unit": "mg/dL"},
      {"measurement": "4-hour postprandial plasma glucose, Difference in Change from Baseline from Placebo, LS Mean", "setting": "[2]; 25 mg/day", "value": -39.9, "unit": "mg/dL"},
      {"measurement": "4-hour postprandial plasma glucose following breakfast, Day 14 Change from Baseline, Mean", "setting": "[2]; 25 mg/day", "value": -32.5, "unit": "mg/dL"},
      {"measurement": "mean reduction from baseline in Cavg B", "setting": "[2]; 100 mg group", "value": 37, "unit": "mg/dL"},
      {"measurement": "mean reduction in Cavg B calculated as a percent change", "setting": "[2]; 100 mg group", "value": 17, "unit": "%"},
      {"measurement": "4-hour postprandial plasma glucose following breakfast, Day 14 Actual, Mean", "setting": "[2]; 100 mg/day, type II diabetes patients", "value": 173.5, "unit": "mg/dL"},
      {"measurement": "4-hour postprandial plasma glucose, Difference in Change from Baseline from Placebo, LS Mean", "setting": "[2]; 100 mg/day", "value": -48.6, "unit": "mg/dL"},
      {"measurement": "4-hour postprandial plasma glucose following breakfast, Day 14 Change from Baseline, Mean", "setting": "[2]; 100 mg/day", "value": -37.2, "unit": "mg/dL"},
      {"measurement": "mean reduction from baseline in Cavg B", "setting": "[2]; 400 mg group", "value": 66, "unit": "mg/dL"},
      {"measurement": "mean reduction in Cavg B calculated as a percent change", "setting": "[2]; 400 mg group", "value": 24, "unit": "%"},
      {"measurement": "4-hour postprandial plasma glucose following breakfast, Day 14 Actual, Mean", "setting": "[2]; 400 mg/day, type II diabetes patients", "value": 198.6, "unit": "mg/dL"},
      {"measurement": "4-hour postprandial plasma glucose, Difference in Change from Baseline from Placebo, LS Mean", "setting": "[2]; 400 mg/day", "value": -68.3, "unit": "mg/dL"},
      {"measurement": "4-hour postprandial plasma glucose following breakfast, Day 14 Change from Baseline, Mean", "setting": "[2]; 400 mg/day", "value": -65.6, "unit": "mg/dL"},
      {"measurement": "4-hour postprandial plasma glucose following breakfast, Day 14 Actual, Mean", "setting": "[2]; All Active (25, 100, 400 mg/day combined)", "value": 191.8, "unit": "mg/dL"},
      {"measurement": "4-hour postprandial plasma glucose, Difference in Change from Baseline from Placebo, LS Mean", "setting": "[2]; All Active", "value": -52.3, "unit": "mg/dL"},
      {"measurement": "4-hour postprandial plasma glucose following breakfast, Day 14 Change from Baseline, Mean", "setting": "[2]; All Active", "value": -44.3, "unit": "mg/dL"},
      {"measurement": "Glycosylated Hemoglobin (HbA1c), Day 15 Actual, Mean", "setting": "[3]; 25 mg/day for 14 days, type II diabetes patients", "value": 7.76, "unit": "%"},
      {"measurement": "HbA1c, Difference in Change from Baseline from Placebo, LS Mean", "setting": "[3]; 25 mg/day", "value": "−0.27", "unit": "%"},
      {"measurement": "HbA1c, Day 15 Change from Baseline, Mean", "setting": "[3]; 25 mg/day", "value": "−0.22", "unit": "%"},
      {"measurement": "Glycosylated Hemoglobin (HbA1c), Day 15 Actual, Mean", "setting": "[3]; 100 mg/day for 14 days, type II diabetes patients", "value": 7.25, "unit": "%"},
      {"measurement": "HbA1c, Difference in Change from Baseline from Placebo, LS Mean", "setting": "[3]; 100 mg/day", "value": "−0.45", "unit": "%"},
      {"measurement": "HbA1c, Day 15 Change from Baseline, Mean", "setting": "[3]; 100 mg/day", "value": "−0.40", "unit": "%"},
      {"measurement": "Glycosylated Hemoglobin (HbA1c), Day 15 Actual, Mean", "setting": "[3]; 400 mg/day for 14 days, type II diabetes patients", "value": 7.82, "unit": "%"},
      {"measurement": "HbA1c, Difference in Change from Baseline from Placebo, LS Mean", "setting": "[3]; 400 mg/day", "value": "−0.32", "unit": "%"},
      {"measurement": "HbA1c, Day 15 Change from Baseline, Mean", "setting": "[3]; 400 mg/day", "value": "−0.28", "unit": "%"},
      {"measurement": "Glycosylated Hemoglobin (HbA1c), Day 15 Actual, Mean", "setting": "[3]; All Active, 14 days", "value": 7.60, "unit": "%"},
      {"measurement": "HbA1c, Difference in Change from Baseline from Placebo, LS Mean", "setting": "[3]; All Active", "value": "−0.35", "unit": "%"},
      {"measurement": "HbA1c, Day 15 Change from Baseline, Mean", "setting": "[3]; All Active", "value": "−0.30", "unit": "%"},
      {"measurement": "Fasting Fructosamine, Day 15 Actual, Mean", "setting": "[4]; 25 mg/day for 14 days", "value": 310.7, "unit": "µmol/L"},
      {"measurement": "Fasting Fructosamine, Difference in Change from Baseline from Placebo, LS Mean", "setting": "[4]; 25 mg/day", "value": -9.6, "unit": "µmol/L"},
      {"measurement": "Fasting Fructosamine, Day 15 Actual, Mean", "setting": "[4]; 100 mg/day for 14 days", "value": 263.9, "unit": "µmol/L"},
      {"measurement": "Fasting Fructosamine, Day 15 Change from Baseline, Mean", "setting": "[4]; 100 mg/day", "value": -25.6, "unit": "µmol/L"},
      {"measurement": "Fasting Fructosamine, Day 15 Actual, Mean", "setting": "[4]; 400 mg/day for 14 days", "value": 312.6, "unit": "µmol/L"},
      {"measurement": "Fasting Fructosamine, Day 15 Change from Baseline, Mean", "setting": "[4]; 400 mg/day", "value": -19.9, "unit": "µmol/L"},
      {"measurement": "Fasting Fructosamine, Difference in Change from Baseline from Placebo, LS Mean", "setting": "[4]; All Active", "value": -28.6, "unit": "µmol/L"},
      {"measurement": "Fasting Fructosamine, Day 15 Change from Baseline, Mean", "setting": "[4]; All Active", "value": -12.9, "unit": "µmol/L"},
      {"measurement": "Glycosylated Hemoglobin (%)", "setting": "[1]", "value": "5.8 ± 0.5", "unit": "%"},
      {"measurement": "decrease of hemoglobin A1c level compared to placebo control", "setting": "[5]", "value": "greater than 0.5%"},
      {"measurement": "Fasting Fructosamine, Day 15 Change from Baseline, Mean", "setting": "[6]; 25 mg/day, baseline Day −7", "value": 6.3, "unit": "µmol/L"},
      {"measurement": "Fasting Fructosamine, Difference in Change from Baseline from Placebo, LS Mean", "setting": "[6]; 100 mg/day", "value": -42.9, "unit": "µmol/L"},
      {"measurement": "Fasting Fructosamine, Difference in Change from Baseline from Placebo, LS Mean", "setting": "[6]; 400 mg/day", "value": -33.2, "unit": "µmol/L"},
      {"measurement": "Fasting Fructosamine, Day 15 Actual, Mean", "setting": "[6]; All Active, 14 days", "value": 295.3, "unit": "µmol/L"}
    ]}
  ]
}
